According to US11464953B2, “Water-soluble microneedle spicules and non-aqueous cosmetic composition containing the same” (PAEAN AESTHETICS INC., priority 2015, dated 2022):

Test: HPLC stability test of vitamin C in non-aqueous cosmetics
Type: physicochemical
Conditions: maintained for 24 months
Description: To confirm the stability of vitamin C (ascorbic acid) contained in non-aqueous cosmetics, the content of the reduced form of ascorbic acid was measured by HPLC for 24 months. The non-aqueous cosmetics in an amount of 0.1 g was collected and distilled water was added to a final volume of 1 mL, and vehemently mixed. Then, the water-soluble ascorbic acid was eluted and the aqueous solution containing ascorbic acid was diluted and used for analysis. The column used was the C18 (4.6×150 mm) and 0.025 M phosphoric acid (pH 2.5) was used for the mobile phase. After adding 10 mM DTT to a 100-fold diluted sample for analysis, the amounts of the reduced form in the sample in which ascorbic acid was all converted to a reduced form and the sample in which 10 mM DTT was not added were compared and thereby the amounts of the ascorbic acid in the reduced form contained in the cosmetics were confirmed. The samples were prepared for 0, 3, 6, 9, 12, 18, and 24 months and analyzed by HPLC. […] The amounts of ascorbic acid in the reduced form was calculated as follows. [table]

## O=C1O[C@H]([C@@H](O)CO)C(O)=C1O [ascorbic acid]
  content of ascorbic acid in the reduced form (Initial AA/Total AA × 100): ≥ 96%
